Results published in BindingDB's records for doi:10.1016/j.bmcl.2017.01.084 (China Pharmaceutical University, 2017).

Experiment: Agonist activity at VDR in human HL60 cells assessed as induction of cell differentiation by measuring increase in NBT positive cells by Wright staining based microscopic method

| SMILES | EC50 [nM] |
| --- | --- |
| CCn1c(C(=O)On2nnc3ccccc32)ccc1C(CC)(CC)c1ccc(C#CC(O)(CC)CC)c(C)c1 | > 50 |
| CCn1cc(C(CC)(CC)c2ccc(C#CC(O)(CC)CC)c(C)c2)cc1C(=O)N[C@@H](C(=O)O)C(C)C | 68 |
| CCn1cc(C(CC)(CC)c2ccc(C#CC(O)(CC)CC)c(C)c2)cc1C(=O)NCCN(C)C | 19 |
| CCn1c(C(=O)NCCC(=O)O)ccc1C(CC)(CC)c1ccc(C#CC(O)(CC)CC)c(C)c1 | 293 |
| CCN(CC)CCNC(=O)c1ccc(C(CC)(CC)c2ccc(OCC(O)C(C)(C)C)c(C)c2)n1CC (stereo not drawn) | 6.5 |
| CCN(CC)CCNC(=O)c1ccc(C(CC)(CC)c2ccc(C#CC(O)(CC)CC)c(C)c2)n1CC | 10 |
| CCN(CC)CCNC(=O)c1cc(C(CC)(CC)c2ccc(C#CC(O)(CC)CC)c(C)c2)cn1CC | 7 |
| CCn1cc(C(CC)(CC)c2ccc(C#CC(O)(CC)CC)c(C)c2)cc1C(=O)NCC(=O)OC | 288 |
| CCn1cc(C(CC)(CC)c2ccc(C#CC(O)(CC)CC)c(C)c2)cc1C(=O)NCC(=O)O | 54 |
| CCn1c(C(=O)N[C@H](C(=O)O)C(C)C)ccc1C(CC)(CC)c1ccc(C#CC(O)(CC)CC)c(C)c1 | 18 |
| CCn1c(C(=O)NCC(=O)O)ccc1C(CC)(CC)c1ccc(C#CC(O)(CC)CC)c(C)c1 | 9.4 |
| C#CCCOC(=O)c1ccc(C(CC)(CC)c2ccc(C#CC(O)(CC)CC)c(C)c2)n1CC | > 50 |
| CCn1cc(C(CC)(CC)c2ccc(C#CC(O)(CC)CC)c(C)c2)cc1C(=O)NCCCN(C)C | 142 |
| CCn1c(C(=O)NCCCO)ccc1C(CC)(CC)c1ccc(C#CC(O)(CC)CC)c(C)c1 | 137 |
| CCn1c(C(=O)NCCC(=O)OC)ccc1C(CC)(CC)c1ccc(C#CC(O)(CC)CC)c(C)c1 | > 50 |
| CCn1cc(C(CC)(CC)c2ccc(C#CC(O)(CC)CC)c(C)c2)cc1C(=O)N[C@H](C(=O)O)C(C)C | 13 |
| CCN(CC)CCCNC(=O)c1ccc(C(CC)(CC)c2ccc(C#CC(O)(CC)CC)c(C)c2)n1CC | 69 |
| CCn1c(C(=O)NCc2ccc(OC)cc2)ccc1C(CC)(CC)c1ccc(C#CC(O)(CC)CC)c(C)c1 | > 50 |
| CCCCC(=O)c1cc(C(CC)(CC)c2ccc(C#CC(O)(CC)CC)c(C)c2)cn1CC | > 50 |
| CCCCC(=O)c1ccc(C(CC)(CC)c2ccc(C#CC(O)(CC)CC)c(C)c2)n1CC | > 50 |
| CCn1cc(C(CC)(CC)c2ccc(C#CC(O)(CC)CC)c(C)c2)cc1C(=O)OCCO | 13 |
| CCn1cc(C(CC)(CC)c2ccc(C#CC(O)(CC)CC)c(C)c2)cc1C(=O)NCCC(=O)O | > 50 |
| CCn1cc(C(CC)(CC)c2ccc(C#CC(O)(CC)CC)c(C)c2)cc1C(=O)N[C@@H](C)CO | 7.3 |
